Experiment: gradient 5% acetonitrile 3 min, to 50% in 2 min, to 85% in 15 min, held 3 min, 100 µL/min
Settings: column: Zorbax Extend-C18 2.1 x 50 mm; eluents: water / acetonitrile, 0.1% formic acid
Outline: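 Mixtures of ~100 pure standards were chromatographed on a Zorbax Extend-C18 column (2.1 × 50 mm, 1.8 μm) at 100 μL/min using water and acetonitrile, each with 0.1% formic acid. Detection used a quadrupole time-of-flight mass spectrometer in positive and negative ionization mode, and data collection spanned 3 months. Retention time was obtained from adduct peaks picked computationally and each checked manually.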

Compound | RP-LC retention time
O=C(c1cccc(Cl)c1)N1CCC(n2c(-c3ccoc3)nc3cccnc32)C1 (centres undefined) | 776 s
Cc1ccc(Cn2cc(-c3ccncc3)cc2C(=O)Nc2ccc3c(c2)OCO3)cc1 | 760 s
O=C(C1CC1)N1[C@H]2CC[C@@H]1c1cnc(-c3ccc(F)cc3)nc1C2 | 870 s
CC(C)NC(=O)c1ccc(OCC2CCCN(C(=O)c3ccc(F)cc3)C2)cc1 (centres undefined) | 844 s
O=C1CC(c2nc(-c3ccc(C(F)(F)F)cc3)no2)CN1c1ccc2c(c1)OCCO2 (centres undefined) | 1030 s
O=C(Cn1nc(N2CCOCC2)c2ccccc2c1=O)Nc1ccccc1C(F)(F)F | 804 s
O=c1ccn(-c2cccc(F)c2)nc1-c1nc(-c2cccc(Br)c2)no1 | 995 s
Cn1ncc(N2CCC(C(=O)N3CCc4ccccc43)C2)cc1=O (centres undefined) | 714 s
CC(C(=O)N1CCN(Cc2ccccc2)CC1)N1C(=O)CCCc2ccccc21 (centres undefined) | 644 s
O=C(Nc1ccccc1)C1CCCN(S(=O)(=O)Cc2ccccc2)C1 (centres undefined) | 940 s
CC(C)Cn1cc(CCNS(=O)(=O)c2cccc(Cl)c2)c2cccnc21 | 985 s
COc1ccc(-c2noc(-c3ccc(N4CCC(N5CCCCC5)CC4)nc3)n2)cc1 | 738 s
COC(=O)c1ccsc1NC(=O)C1COCC(=O)N1Cc1ccccc1 (centres undefined) | 786 s
O=C(Nc1ccccc1)C12CC1/C(=N\O)c1ccccc1O2 (centres undefined) | 825 s
O=C(c1ccc(OC(F)(F)F)cc1)N1CCN(c2cc(-c3ccc(Cl)cc3)[nH]n2)CC1 | 991 s
Cc1ccc(-c2nc3c(C)cccn3c2Nc2ccc3c(c2)OCCO3)cc1 | 721 s
O=C(NCC1CCOCC1)Nc1ccc(Cl)cc1C(F)(F)F | 846 s
Cc1ccccc1-n1c(=O)c2sccc2n(Cc2nc(-c3ccc(F)c(Cl)c3)no2)c1=O | 1110 s
CCN(CC)CCCNC(=O)C1CCCN(c2nc3ccccc3n(Cc3ccccc3)c2=O)C1 (centres undefined) | 726 s
CCCn1cc(C(=O)NCc2ccc(N3CCOCC3)cc2)c2cccnc21 | 734 s

Compound | RP-LC retention time
Cc1nnc(-c2c(S(=O)(=O)NC3CCCCCC3)c(C)n(C)c2C)o1 | 900 s
Cc1occc1C(=O)N1CC(F)(F)C[C@H]1c1nc(C2CC2)no1 | 726 s
Cc1cc(C)cc(NC(=O)N2CC(CN(C)C)C3(CCCCC3)C2)c1 (centres undefined) | 695 s
Cc1nnc(SCC(=O)Nc2nc(-c3ccccc3)ns2)s1 | 852 s
Cc1ccc(NC(=O)C2CCCN(c3nccc(C)n3)C2)c(Br)c1 (centres undefined) | 889 s
Cc1ccc(NC(=O)CN2C(=O)CSC(C)C2=O)cc1Cl (centres undefined) | 819 s
COC(=O)c1nc(NC(=O)Cn2nc3c(cc2=O)CCCC3)sc1C(C)C | 805 s
COc1ccc(NS(=O)(=O)c2ccc(-c3nnc(C4CCC4)o3)o2)cc1 | 864 s
CCOC(=O)c1c(C)[nH]c(CCC(=O)NC(C)c2ccc3c(c2)OCCO3)c1C (centres undefined) | 854 s
CCCCC(=O)Nc1nc(-c2ccc3c(c2)N(C)C(=O)CO3)c(C)s1 | 925 s
CC(C)c1nnc2n1CCN(C(=O)CC1CCCCC1)C2 | 699 s
Cc1ccc(CNC(=O)C2(C)CCCN(C(=O)Nc3cccc(F)c3)C2)cc1 (centres undefined) | 967 s
COC(=O)c1cc2n(n1)CC(C)(C(=O)NC1CCCCC1)N(c1ccc(F)cc1)C2=O (centres undefined) | 847 s
O=C(Nc1ccc2c(c1)OCCO2)[C@@H]1COCC(=O)N1Cc1ccc(F)cc1 | 765 s
CCNC(=O)C1CCCN(c2nc3ncn(CC(=O)Nc4ccc(F)cc4F)c(=O)c3s2)C1 (centres undefined) | 670 s
CCn1c(C(=O)N2CCN(c3ccccn3)CC2)cc2c(=O)oc3ccccc3c21 | 637 s
CN(CCc1noc(C2CN(C(=O)c3ccsc3)C2)n1)C(=O)C1CC1 | 647 s
O=C(Cc1ccc(NC(=O)CSCc2ccccc2)cc1)NCC(F)(F)F | 801 s
COC(=O)Nc1nc(CC(=O)NCc2ccccc2Cl)cs1 | 667 s
O=S(=O)(Nc1ccc(Cn2cncn2)cc1)c1ccc(F)cc1 | 701 s

Compound | RP-LC retention time
CCOc1ccccc1NC(=O)N1CCN(c2cc(C)nc(N3CCCC3)n2)CC1 | 692 s
CCOC(=O)c1c(S(=O)(=O)N2CCC(C(=O)NCc3ccco3)CC2)c(C)n(C)c1C | 740 s
O=C(NCc1ccc2c(c1)OCO2)C1CCCN(c2ccc(N3CCOCC3)nn2)C1 (centres undefined) | 609 s
COC(=O)c1ccccc1NC(=O)CN1CCC(c2nc(-c3cccc(F)c3)no2)CC1 | 738 s
COc1ccc2c(c1)C1(CCN(S(=O)(=O)c3cccc(Cl)c3)C1)C(=O)N2 (centres undefined) | 866 s
COc1cc(NC(=O)CC2=C3CCCCC3NC2=O)cc(OC)c1 (centres undefined) | 706 s
Cn1nc2n(c1=O)CCN(C(=O)C1(c3ccccc3)CCCC1)CC2 | 736 s
CC(C)NC(=O)CN1C(=O)CSc2ccc(C(=O)N3CCCCC3)cc21 | 673 s
O=C(Cn1ncc2c3ccccc3n(Cc3ccccc3)c2c1=O)N1CCN(c2ccccn2)CC1 | 693 s
CC(C)Oc1ccc(-c2noc(CN3C(=O)C(C)Oc4ccccc43)n2)cc1 (centres undefined) | 1200 s
O=c1c2ccccc2oc2nc(-c3ccco3)n(Cc3ccccc3)c(=O)c12 | 797 s
Cc1cc(N2CCN(C(=O)Nc3ccc4c(c3)OCCO4)CC2)nc(N2CCOCC2)n1 | 609 s
O=C(NCC(c1cccs1)S(=O)(=O)c1cccs1)NC1CCCCC1 (centres undefined) | 790 s
O=C(c1cn(-c2cc(N3CCSCC3)ncn2)cn1)N1CCCc2ccccc21 | 780 s
O=C(NCC1CC1)c1c(-c2ccccc2)cc(=O)n2c1CCC2 | 660 s
O=S(=O)(c1ccc(-c2noc(-c3cccc(F)c3)n2)cc1)N1CCCCC1 | 1280 s
COc1ccc(CC(=O)N2CCC3(C2)C(=O)Nc2ccc(OC)cc23)c(Cl)c1 (centres undefined) | 768 s
CCc1noc([C@@H]2CC(F)(F)CN2C(=O)c2ccco2)n1 | 755 s
CN1CCC2(CC1)CN(C(=O)Nc1ccccc1)CC2c1nc(-c2ccccc2)no1 (centres undefined) | 659 s
O=C(Nc1ccc(C(F)(F)F)cc1)N1CCCC(Cn2c(C3CC3)nc3cccnc32)C1 (centres undefined) | 798 s

More lines, now with the values ahead:

RP-LC retention time | Compound
998 s | COc1cccc(-c2noc(Cn3nc(-c4ccccc4)ccc3=O)n2)c1
937 s | CCOC(=O)c1ccc(NC(=O)c2cc(C)nn2-c2ccccc2)cc1
758 s | COc1ccc(CCNC(=O)c2ccc(-n3nc(C)cc3C)nc2)cc1OC
662 s | Cc1ccc(CNC(=O)Nc2c(-c3ccccc3)nc3ccccn23)cc1
850 s | Cc1cc(NC2CCCCC2)nc(-n2nc(C)cc2C)n1
987 s | Cc1ccc(-n2c(N3CCCC(C(=O)NCc4ccc(C)c(C)c4)C3)nc3ccsc3c2=O)cc1 (centres undefined)
688 s | COc1ccc(-c2noc(-c3cccn(CC(=O)NC(C)C)c3=O)n2)cc1OC
1000 s | COc1ccc(-c2nc(-c3nnn(-c4ccccc4)c3C)no2)c(OC)c1
754 s | CCn1ccc2c(cc(C(=O)Nc3ccc(F)cc3)n2C)c1=O
762 s | CCOC(=O)Cn1c(C2CC(=O)N(c3ccc(OC)cc3)C2)nc2ccccc21 (centres undefined)
808 s | Cc1ccc2c(Nc3cccc(Cl)c3)c(-c3nc(C)no3)cnc2n1
1060 s | CC(C)c1cc(C(=O)Nc2ccc(Cl)cc2)nc2ccnn12
947 s | COc1ccc(OCc2nn3c(-c4ccc(OC)cc4)nnc3s2)cc1
659 s | COc1cc(NC(=O)Cn2nc3n(c2=O)CCCCC3)cc(OC)c1OC
561 s | COC(=O)c1ccc(NC(=O)CN2CC(c3nc(-c4cnccn4)no3)C2)cc1
918 s | Cc1nn(-c2ccc(C(=O)NCc3cc(F)cc(F)c3)cn2)c(C)c1C
793 s | CSc1ccc(-c2nc3cnccn3c2Nc2cccc(C(=O)NCc3ccco3)c2)cc1
679 s | COC(=O)c1ccc(NC(=O)N2CCOc3ccc(C)cc32)cc1
764 s | COc1ccc2c(CCNC(=O)c3cccs3)c[nH]c2c1
670 s | Cc1c(CNCc2ccccn2)c(C(=O)O)c(C)n1Cc1ccc(F)cc1
821 s | CCc1ccc(CNC(=O)Cn2c(C)nc3onc(C)c3c2=O)cc1
959 s | CCN1c2cc(C(=O)NCCC3=CCCCC3)ccc2C(=O)N2CCCCC21 (centres undefined)
610 s | Cc1cc(C)n(-c2ccnc(N3CCN(C(C)C)CC3)n2)n1
815 s | COc1cccc(CNC(=O)N2CCCC(C)(C(=O)NCc3ccc(F)cc3)C2)c1 (centres undefined)
924 s | COc1ccc(-c2cc(C(=O)N3CCN(S(=O)(=O)c4ccc(C)cc4C)CC3)[nH]n2)cc1
968 s | CCN1C(=O)COc2ccc(-c3csc(NC(=O)c4ccccc4F)n3)cc21
704 s | COc1ccc(-c2cn3c(CC(=O)Nc4cccc(C#N)c4)csc3n2)cc1OC
971 s | COc1ccccc1NC(=O)Cn1c(=O)n(-c2ccccc2)c(=O)c2c1cc(C)n2C
809 s | COc1cc(OC)cc(-c2nc(-c3cn(-c4ccc(F)cc4)nn3)no2)c1
